Reference: publication PMC10272271, “MAM-2201 acute administration impairs motor, sensorimotor, prepulse inhibition, and memory functions in mice: a comparison with its analogue AM-2201” (Psychopharmacology, 2023)

Experiments:
[1] = biological target: T1, murine CB1 receptors (Mus musculus, UniProt P47746); assay: [3H]-CP-55,940 competition binding, mouse brain (cortex) membranes; details: for selectivity index (ratio Ki CB2 / Ki CB1): murine CB receptors
T1 construct: membranes from mouse brain and spleen were used, respectively; from tissue
T1 sequence (P47746 whole entry): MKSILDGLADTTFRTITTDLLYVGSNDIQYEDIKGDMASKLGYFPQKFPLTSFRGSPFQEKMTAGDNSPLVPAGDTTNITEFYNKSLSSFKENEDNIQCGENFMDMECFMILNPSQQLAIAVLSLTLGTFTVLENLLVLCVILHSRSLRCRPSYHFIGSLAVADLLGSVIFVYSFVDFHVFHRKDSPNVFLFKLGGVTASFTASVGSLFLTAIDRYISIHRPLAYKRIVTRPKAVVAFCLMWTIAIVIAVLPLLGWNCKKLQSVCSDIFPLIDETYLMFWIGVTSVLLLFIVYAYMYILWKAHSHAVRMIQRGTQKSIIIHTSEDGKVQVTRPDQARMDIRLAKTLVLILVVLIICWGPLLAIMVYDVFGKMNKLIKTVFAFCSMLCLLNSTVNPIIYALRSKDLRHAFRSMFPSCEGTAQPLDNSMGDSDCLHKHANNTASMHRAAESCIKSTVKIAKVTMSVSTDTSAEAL
Protocol: (§1) To evaluate the affinity of synthetic cannabinoids for murine CB1 and CB2 receptors, membranes from mouse brain and spleen were used, respectively. Following excision from mice, tissues were suspended in 50 mM Tris HCl, pH 7.4 at 4 °C. The mouse brain and spleen tissues were homogenized with a Polytron and subsequently centrifuged for 10 min at 2000 × g. The resulting supernatants were filtered, centrifuged for 20 min at 40,000 × g and the pellets were used for competition binding experiments (Vincenzi et al. [2013]).
(§2) Competition binding experiments were carried out incubating 0.5 nM [^3H]-CP-55,940 (Perkin Elmer Life and Analytical Sciences, USA) and different concentrations of the tested compounds for 90 or 60 min at 30 °C for CB1 or CB2 receptors, respectively. For human cannabinoid receptors, membranes obtained from CHO cells transfected with human CB1 or CB2 receptors (2 µg protein/100 µl) were used. Competition binding experiments at murine cannabinoid receptors were performed with mouse brain membranes (40 µg protein/100 µl) or with mouse spleen membranes (80 µg protein/100 µl) for CB1 receptors or CB2 receptors, respectively. Non-specific binding was determined in the presence of 1 mM WIN 55,212–2 (Vincenzi et al. [2013]). Bound and free radioactivity were separated by filtering the assay mixture through Whatman GF/C glass fiber filters using a Brandel cell harvester (Brandel Instruments, Unterföhring, Germany). The filter-bound radioactivity was counted using a Packard Tri Carb 2810 TR scintillation counter (Perkin Elmer Life and Analytical Sciences, USA).
(§3) The protein concentration was determined according to a Bio-Rad method (500–0006; Bio-Rad Laboratories, Hercules, CA, USA) with bovine serum albumin as a reference standard. Inhibitory binding constants, Ki, were calculated from the IC50 values according to the Cheng and Prusoff equation: Ki = IC50/(1 + [C*]/KD*), where [C*] is the concentration of the radioligand and KD* its dissociation constant. Functional experiments were analyzed by non-linear regression analysis using the equation for a sigmoid concentration–response curve (GraphPad Prism, USA). All the data are expressed as the mean ± SEM of three independent experiments.

[2] = biological target: T2, murine CB2 receptors (Mus musculus, UniProt P47936); assay: [3H]-CP-55,940 competition binding, mouse spleen membranes
T2 construct: membranes from mouse brain and spleen were used, respectively; from tissue; host or cells: mouse spleen membranes, CD-1 mice
T2 sequence (P47936 whole entry): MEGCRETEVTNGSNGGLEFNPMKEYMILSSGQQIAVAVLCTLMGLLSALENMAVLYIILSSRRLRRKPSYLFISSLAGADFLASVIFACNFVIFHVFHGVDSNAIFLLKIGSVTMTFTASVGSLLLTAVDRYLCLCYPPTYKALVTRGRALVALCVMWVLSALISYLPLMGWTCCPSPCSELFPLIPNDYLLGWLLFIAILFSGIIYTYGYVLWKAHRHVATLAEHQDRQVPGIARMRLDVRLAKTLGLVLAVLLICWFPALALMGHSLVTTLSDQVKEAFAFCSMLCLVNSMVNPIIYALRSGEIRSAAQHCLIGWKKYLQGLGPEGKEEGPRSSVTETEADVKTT
Protocol: as §1
as §2, with “For human cannabinoid receptors, membranes obtained from CHO cells transfected with human CB1 or CB2 receptors (2 µg protein/100 µl) were used. Competition binding experiments at murine cannabinoid receptors were performed with mouse brain membranes (40 µg protein/100 µl) or with mouse spleen membranes (80 µg protein/100 µl) for CB1 receptors or CB2 receptors, respectively.” left out
The protein concentration was determined according to a Bio-Rad method (500–0006; Bio-Rad Laboratories, Hercules, CA, USA) with bovine serum albumin as a reference standard. […]

[3] = biological target: T3, human CB1 receptors (Homo sapiens, UniProt P21554); assay: Cyclic AMP assay, hCB1 CHO cells; type: cell-based; details: for agonist behaviour (inhibition of forskolin-stimulated cAMP production): CHO cells, human CB1
T3 construct: host or cells: CHO cells
T3 sequence (P21554 whole entry): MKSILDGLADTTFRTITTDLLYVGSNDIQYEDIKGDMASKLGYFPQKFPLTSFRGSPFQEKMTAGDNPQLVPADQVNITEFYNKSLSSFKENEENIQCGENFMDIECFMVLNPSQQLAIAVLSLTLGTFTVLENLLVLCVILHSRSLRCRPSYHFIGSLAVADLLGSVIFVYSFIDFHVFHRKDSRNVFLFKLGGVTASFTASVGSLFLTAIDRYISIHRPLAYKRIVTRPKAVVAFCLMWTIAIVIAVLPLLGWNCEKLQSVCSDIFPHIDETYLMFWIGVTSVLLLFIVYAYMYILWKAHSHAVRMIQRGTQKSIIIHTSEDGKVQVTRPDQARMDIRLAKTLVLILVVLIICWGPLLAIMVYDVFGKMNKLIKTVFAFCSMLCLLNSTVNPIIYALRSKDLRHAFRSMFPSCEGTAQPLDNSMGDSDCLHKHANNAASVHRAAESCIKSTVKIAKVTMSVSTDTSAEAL
Protocol: CHO cells transfected with human CB1 or CB2 receptors were washed with PBS, detached with trypsin, and centrifuged for 10 min at 200 × g. The pellet containing 1 × 10^6 cells/assay was suspended in 0.5 ml of buffer containing150 mM NaCl, 2.7 mM KCl, 0.37 mM NaH2PO4, 1 mM MgSO4, 1 mM CaCl2, 5 mM HEPES, 10 mM MgCl2, and 5 mM glucose, at pH 7.4 and 37 °C. Cells were pre-incubated with 0.5 mM of the phosphodiesterase inhibitor 4-(3-butoxy-4-methoxybenzyl)-2-imidazolidinone (Ro 20–1724;) for 10 min in a shaking bath at 37 °C. The potency of the examined compounds to inhibit adenylate cyclase activity was determined in the presence of forskolin 1-µM stimulation. The reaction was terminated by the addition of cold 6% trichloroacetic acid (TCA) and the final aqueous solution was tested for cyclic AMP levels by a competition protein binding assay (AlphaScreen cAMP Detection Kit, Cat. Number 6760635D, Perkin Elmer Life and Analytical Sciences, USA) following the manufacturer’s instructions; Vincenzi et al. [2013]).
as §3

[4] = test system: CD-1 male mice; assay: Novel Object Recognition (NOR) test; type: in vivo, mouse
Protocol: This test was performed according to the method reported by Ennaceur and Delacour ([1988]) and Antunes and Biala (2012). The test was conducted in three phases: habituation, familiarization, and choice. Firstly, CD-1 mice (n = 10/group) were subjected to a 3-day habituation phase, conducted by placing each animal into the NOR chamber (a square open field 60 cm × 60 cm × 40 cm, dark PVC plastic box) located in a dimly lit (50 lx), sound-attenuated and acclimatized room. Mice were allowed to explore freely for 20 min/day. No objects were placed in the box during the habituation trial. Twenty-four hours (h) after last habituation section, the familiarization trial was conducted by placing the mouse in the field in which two identical objects (A, A) were positioned in the corners of the arena approximately 6 cm from the walls. Mice were placed at the mid-point of the wall opposite to the objects and allowed to explore them for 15 min. Fifteen minutes after the familiarization phase, mice were injected with vehicle or drug (MAM-2201 and AM-2201) and tested in two consecutive choice sections performed 2 h (short-term memory) and 24 h (long-term memory) after the drug administration. During the choice test at 2 h, one of the two familiar objects (A) was replaced with a new one (novel; B), different in shape, dimension, and color. Each mouse was then placed in the apparatus and left free to explore the objects (A and B) for 5 min. In the choice test given at 24 h, the mice explored the open field for 5 min in the presence of one familiar (A) and one novel object (C, different from B). Exploration was defined as the time (s) during which the mouse nose was in contact with the object or directed toward it at a distance ≤ 2 cm. Turning around the object was not considered as exploratory behavior.
All experiments were performed using the ANY-maze video tracking system (Ugo Basile, application version 4.99 g Beta) and subsequently analyzed by an observer blind to the mouse treatment and to which object was the novel one. Exploration time of familiar (A) and novel (B) object was detected. The novel object preference was quantified as the Recognition Index (RI) calculated as: RI=novelB-familiarA/novelB+familiarA. Using this metric, scores approaching zero reflects no preference (impairment of recognition memory), positive values reflect preference for the novel object (good recognition memory) while negative numbers reflect preference for the familiar (impairment of recognition memory). Moreover, the total exploration time (s) spent by the animal in the choice phase at 2 h (familiar A + novel B) and 24 h (familiar A + novel C) was calculated to investigate the effect of drugs on object exploration.
The objects to be discriminated by mice were 7 sets of novel and familiar objects of different material (plastic, glass, or ceramic), shape (cube, parallelepiped, and cylinder), dimension (height: 3–8 cm; width: 6–8), and color (light yellow, red and blue). The set of objects used in the familiarization phase (two identical A, A objects) was used in the subsequent vehicle/drug conditions at 2 and 24 h. The choice of object for novel or familiar was counterbalanced and the position of each object was also alternated between trials to avoid any misinterpretation of data. The object weight was such that they could not be displaced by mice. To avoid mice olfactory cues, objects and apparatus were carefully cleaned with a dilute (5%) ethanol solution and water between animal trials and also between familiarization and choice phase (executed 2 and 24 h after the familiarization phase). Animals that spent less than 10 s exploring both objects were excluded from the study and replaced by other animals.

SMILES | Ki [1] | selectivity index (ratio Ki CB2 / Ki CB1) [1] | Ki [2] | IC50 [3] | agonist behaviour (inhibition of forskolin-stimulated cAMP production) [3] | effect on Total Object Exploration (TOE) time ([4]; 0.1 mg/kg i.p.) | effect on Recognition Index (RI) ([4]; 0.1 mg/kg i.p., 2 h) | effect on Total Object Exploration (TOE) time ([4]; 1 mg/kg i.p., 2 and 24 h) | effect on Recognition Index (RI) ([4]; 1 mg/kg i.p., 2 h) | effect on Recognition Index (RI) ([4]; 0.1 and 1 mg/kg i.p., 24 h)
O=C(c1cccc2ccccc12)c1cn(CCCCCF)c2ccccc12 [AM-2201, 1-[(5-Fluoropentyl)-1H-indol-3-yl](1-naphthylenyl) methanone] | 1.96 ± 0.13 nM | 7.4 | 14.6 ± 1.2 nM | 2.84 ± 0.21 nM | full agonists | did not alter | RI reduction | impaired | reversal | significant reduction
Cc1ccc(C(=O)c2cn(CCCCCF)c3ccccc23)c2ccccc12 [MAM-2201, 1-[(5-fluoropentyl)-1H-indol-3-yl](4-methyl-1-naphthalenyl) methanone] | 1.07 ± 0.23 nM | 9.0 | 9.6 ± 1.9 nM | 1.26 ± 0.56 nM | full agonists | did not alter | significantly reduced | impaired | negative score | significant decrease
